According to article PMC9186412, “Rational Framework for the Design of Trp- and Arg-Rich Peptide Antibiotics Against Multidrug-Resistant Bacteria” (Frontiers in Microbiology, 2022):
≈ marks a conversion by molar mass, not a printed value. Where two headings read alike, the source gives them in different places.

Experiments:
A. baumannii = experiment: microbe, parasite or virus in culture; format: cell-based, Acinetobacter baumannii; settings: Acinetobacter baumannii, 18 h, MHB2, 18 h, 37°C
Outline: (§1)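 Clinical isolates in log phase were exposed to peptides in cation-adjusted MHB for 18 h at 37 °C, with growth followed hourly at A570 to give the MIC by a modified CLSI method. For MBC, bacteria were treated 3 h in 15% FBS/25% MHB/60% PBS and then plated; MBC was the concentration giving complete killing.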

E. coli = experiment: microbe, parasite or virus in culture; format: cell-based, Escherichia coli; settings: Escherichia coli, 18 h, MHB2, 18 h, 37°C
Outline: as §1

Enterobacter spp = experiment: microbe, parasite or virus in culture; format: cell-based, Enterobacter spp (aerogenes, cloacae); settings: Enterobacter, 18 h, UPMC, MHB2, 18 h, 37°C
Outline: as §1

K. pneumoniae = experiment: microbe, parasite or virus in culture; format: cell-based, Klebsiella pneumoniae; settings: Klebsiella pneumoniae, 18 h, MHB2, 18 h, 37°C
Outline: as §1

P. aeruginosa = experiment: microbe, parasite or virus in culture; format: cell-based, Pseudomonas aeruginosa; settings: Pseudomonas aeruginosa, MHB2, 18 h, 37°C
Experimental: Bacterial clinical isolates, used for initial screening and in previous studies ([Deslouches et al., 2013]; [Lin et al., 2018]), were anonymously provided by the clinical microbiology laboratory of the University of Pittsburgh medical Center. The panel used for secondary screening was from [CDC (2013)] (Supplementary Table 3), with resistance profiles data. Bacteria are stored in lock-secured –80°C freezer and typically retrieved by obtaining single colonies on agar plates prior for subsequent liquid broth cultures. Suspensions of test bacteria were prepared from log phase of growth by diluting overnight cultures at 1:100 with fresh cation-adjusted MHB (MHB2, Millipore Sigma, United States) and incubating for additional 3–4 h. Bacteria were spun at 3,000 × g for 10 min and the pellet resuspended in test condition media (Millipore Sigma, United States) to determine bacterial turbidity using a Den-1B densitometer (Grant Instruments, United States) at 0.5 McFarland (unit of bacterial density) corresponding to […].
To examine antibacterial activity, we used minor modifications of a standard growth inhibition assay endorsed by the Clinical and Laboratory Standards Institute (CLSI), as previously described ([Deslouches et al., 2013]). Bacteria were incubated with each of the indicated peptides in MHB2. The bacterial cells were kept in an incubator for 18 h at 37°C, which is linked to a robotic system that feeds a plate reader every hour with one of 8 × 96-well plates. This set-up allows the collection of growth kinetic data at A 570 (absorbance at 570 nm) to examine growth inhibition in real time (BioTek Instruments, United States). […] The assays are typically repeated a second time. If the MIC is different, a third experimental trial is performed to confirm the MIC. To assess bactericidal properties of the peptide, the assay was modified by using 15% fetal bovine serum (FBS, for a more physiologically relevant test condition) mixed with 25% MHB2 and 60% PBS. Bacterial cells (colony forming unit/mL or CFU/mL) were enumerated after incubating treated bacteria for 3 h and plating serially diluted samples on broth agar medium at 37°C overnight. Minimum bactericidal concentration (MBC) was determined as the peptide concentration at which complete bacterial killing was observed. […] Data were analyzed using GraphPad Prism software.

MDR strain PA239 = experiment: Propidium iodide incorporation by flow cytometry; format: cell-based, Pseudomonas aeruginosa; settings: 2 μM, treated for 3 h
From the text: To examine whether the selected peptides kill their bacterial target mainly by membrane permeabilization, we used PI incorporation by the MDR strain PA239 (5 × 10^8 CFU/mL) quantitated by flow cytometry (Novocyte, United States) or visualized by video imaging using the digital microscope EVOS M7000 (Thermo Fisher Scientific, United States) in bright field or red fluorescence channel. In the flow cytometry experiments ([Di et al., 2020]), bacterial cells were either untreated or treated with different peptide E35 concentrations in MHB2 for 1 h at 37°C. We washed the bacteria-peptide mixture with PBS using an Eppendorf centrifuge at top speed for 7 min and incubated with PI in the dark for 15 min at room temperature. Tobramycin was used as a negative control with a 3-h long incubation. For video imaging, the broth medium was reduced to 20% in PBS (treated or untreated) to decrease the rate of cell division and PI incorporation assessed over time. Video images were recorded in real time using the 40× objective either in bright field or red fluorescence channel.

CDC AR isolates = tested on: CDC AR isolates; parameters: key: S (green), susceptible; I (blue), intermediate; R (red), resistant; settings: data provided by the CDC, ref CDC, cited from earlier work
From the text: Supplement Table_3.XLSX, sheet "CDC AR isolates profiles" | column: G(-) strains

## NC[C@H]1O[C@H](O[C@H]2[C@H](O)[C@@H](O[C@H]3O[C@H](CO)[C@@H](O)[C@H](N)[C@H]3O)[C@H](N)C[C@@H]2N)[C@H](N)C[C@@H]1O [Tobramycin, reference compound]
A. baumannii; strain AB-A2, UPMC clinical strain, A570, confirmed by 2nd or 3rd trial
  MIC: 0.5 µM (≈ 0.234 µg/mL)
A. baumannii; strain AB-A3, UPMC
  MIC: 16 µM (≈ 7.48 µg/mL)
A. baumannii; strain AB-F8, UPMC
  MIC: > 16 µM
A. baumannii; strain AB-F9, UPMC
  MIC: 2 µM (≈ 0.935 µg/mL)
E. coli; strain YDC337, UPMC
  MIC: > 16 µM
E. coli; strain YDC748, UPMC
  MIC: 16 µM (≈ 7.48 µg/mL)
Enterobacter spp; strain EA518 (aerogenes)
  MIC: > 16 µM
Enterobacter spp; strain EA596 (aerogenes)
  MIC: > 16 µM
Enterobacter spp; strain EC470 (cloacae)
  MIC: 4 µM (≈ 1.87 µg/mL)
Enterobacter spp; strain EC560 (cloacae)
  MIC: > 16 µM
K. pneumoniae; strain KPA5 (colistin-resistant), UPMC
  MIC: > 16 µM
K. pneumoniae; strain KPB3, UPMC
  MIC: > 16 µM
P. aeruginosa; 18 h, strain PA01
  MIC: 1 µM (≈ 0.468 µg/mL)
P. aeruginosa; 18 h, strain PA97-5, UPMC
  MIC: > 16 µM
P. aeruginosa; 18 h, strain PA129-5, UPMC
  MIC: 16 µM (≈ 7.48 µg/mL)
P. aeruginosa; PA14, 18 h, strain PA14
  MIC: 0.5 µM (≈ 0.234 µg/mL)
MDR strain PA239
  PI incorporation: 29%
CDC AR isolates; Acinetobacter baumannii AB273, CDC AR isolate
  Antibiotic susceptibility profile: R
CDC AR isolates; Acinetobacter baumannii AB274, CDC AR isolate
  Antibiotic susceptibility profile: S
CDC AR isolates; Acinetobacter baumannii AB275, CDC AR isolate
  Antibiotic susceptibility profile: R
CDC AR isolates; Acinetobacter baumannii AB276, CDC AR isolate
  Antibiotic susceptibility profile: R
CDC AR isolates; Enterobacter cloacae E62, CDC AR isolate
  Antibiotic susceptibility profile: R
CDC AR isolates; Escherichia coli EC541, CDC AR isolate
  Antibiotic susceptibility profile: R
CDC AR isolates; Escherichia coli EC543, CDC AR isolate
  Antibiotic susceptibility profile: R
CDC AR isolates; Escherichia coli EC544, CDC AR isolate
  Antibiotic susceptibility profile: R
CDC AR isolates; Escherichia coli EC549, CDC AR isolate
  Antibiotic susceptibility profile: R
CDC AR isolates; Klebsiella pneumoniae KP542, CDC AR isolate
  Antibiotic susceptibility profile: R
CDC AR isolates; Klebsiella pneumoniae KP548, CDC AR isolate
  Antibiotic susceptibility profile: S
CDC AR isolates; Klebsiella pneumoniae KP550, CDC AR isolate
  Antibiotic susceptibility profile: R
CDC AR isolates; Klebsiella pneumoniae KP552, CDC AR isolate
  Antibiotic susceptibility profile: R
CDC AR isolates; Pseudomonas aeruginosa PA229, CDC AR isolate
  Antibiotic susceptibility profile: S
CDC AR isolates; Pseudomonas aeruginosa PA230, CDC AR isolate
  Antibiotic susceptibility profile: R
CDC AR isolates; Pseudomonas aeruginosa PA231, CDC AR isolate
  Antibiotic susceptibility profile: R
CDC AR isolates; Pseudomonas aeruginosa PA232, CDC AR isolate
  Antibiotic susceptibility profile: R
CDC AR isolates; Pseudomonas aeruginosa PA239, CDC AR isolate
  Antibiotic susceptibility profile: R
